Data from patent US7314626B2, “Use of peptide vectors to improve the immune response to antigens” (SYNT:EM S.A., priority 2001, dated 2008).

Tests used:
K562 cells = assay: Cell uptake by K562 cells, flow cytometry (Mean Fluorescence Intensity); type: cell-based; conditions: for cell uptake as judged by the mean of fluorescence intensity: 37° C.
Method: Cell association was measured by flow cytometry using a FACScan (Becton Dickinson, USA). Free or vectorised compounds were incubated with K562 cells (5×10^5 cells per ml) in Optimem medium at 37° C. for various periods of time.
Thereafter, the cells were washed twice and then resuspended in 0.5 ml of ice-cold PBS for FACS analysis. Cell-associated fluorophores were excited at 488 nm and fluorescence was measured at 525 nm. A histogram of fluorescence intensity per cell (1×10^4) was obtained and the calculated mean of this distribution (Mean Fluorescence Intensity) was considered as representative of the amount of cell-associated peptide
Flu NP epitope was conjugated to SynB3 and SynB4 vectors. First, we compared the cell uptake of free and conjugated flu NP. Flu NP epitope was conjugated to SynB3 and SynB4 vectors and labelled with a fluorescent group (NBD). The compounds were incubated with K562 cells for various times and the cell uptake was measured using flow cytometry.
We also coupled rDPV protein with SynB3 and SynB4 vectors. The coupling procedure is described in the Protocols. First, we compared the cell uptake of free and coupled rDPV. The rDPV was labelled with a fluorescent group (NBD) in order to measure its uptake. The compounds were incubated with K562 cells for various times and the cell uptake was measured using flow cytometry.

Balb/c mice = assay: Immunization with flu NP peptide, CTL responses by 51Cr release assay; type: in vivo; conditions: FIG. 2; for specific CTL responses: intradermal, 25 μg flu NP peptide equivalent, spleens after three weeks; for mice eliciting CTL responses: three mice per group
C57B1/6/c mice = assay: Immunization with rDPV protein, DPV specific CTL responses by 51Cr release assay; type: in vivo; conditions: 5 μg intradermal on day 0 and day 21, spleens day 42, FIG. 4, effective response defined as >10% specific lysis
[1] = NBD-labelled free or conjugated flu NP, FIG. 1
[2] = NBD-labelled free or coupled rDPV, FIG. 3

Substance	cell uptake as judged by the mean of fluorescence intensity (K562 cells; [1])	specific CTL responses (Balb/c mice)	mice eliciting CTL responses (Balb/c mice)	time at which cell uptake reached saturation (K562 cells; FIG. 3) [min]	cell uptake as judged by the mean of fluorescence intensity (K562 cells; [2])	cell uptake as judged by the mean of fluorescence intensity (K562 cells; NBD-labelled free or coupled rDPV, FIG. 3, listed as rDPV-SynB4)	mean CTL response (C57B1/6/c mice)	cell uptake higher than the one observed for free flu NP (K562 cells; at 45 min)
RRLSYSRRRF-TYQRTRALV (SEQ ID NO:22) (RRLSYSRRRFTYQRTRALV) [SynB3/flu NP]	increased significantly	elicited specific CTL responses	all mice					
AWSFRVSYRGISYRRSR-rDPV ((SEQ ID NO:18)-rDPV) [SynB4/rDPV]				100	increased significantly	slightly better than SynB3	strong CTL responses	
AWSFRVSYRGISYRRSR-TYQRTRALV (SEQ ID NO:21) (AWSFRVSYRGISYRRSRTYQRTRALV) [SynB4/flu NP]	increased significantly	elicited specific CTL responses	all mice					about 5 fold
RRLSYSRRRF-rDPV ((SEQ ID NO:11)-rDPV) [SynB3/rDPV]				30	increased significantly		strong CTL responses	
TYQRTRALV (SEQ ID NO:20) [flu NP, reference compound]	very low uptake	failed to elicit specific CTL responses						
